# Entries after “also recorded” stand apart in the source; their conditions may differ.
# Experiments:
# [1] = test system: Staphylococcus aureus (ATCC 25923); test: Sanitizer Test on glass slides, 5-minute contact time (parallels EPA Non-Food Contact Sanitizer Test DIS/TSS-10); type: cell-based; conditions: S. aureus, dopant to hypochlorite 0.20 to 1.0, 985 ppm TAC
# Method: The test method used to evaluate antimicrobial efficacy was the Sanitizer Test described below.
# (§1) Sanitizer Test: Glass slides measuring 18×36 mm were washed in a dishwasher, placed in glass petri dishes on 2 pieces of Whatman no. 2 filter paper and autoclaved. The slides were inoculated with a 10 μl sterile bacterial loop. The inoculum was spread over the upper surface of the slide being careful not to exceed the edges of the slide. The inoculum was a 24 hour culture having a concentration of approximately 10^9 organisms per ml. Following inoculation, the slides were incubated at 35° C. for 30±5 minutes to allow the slides to dry. The test product was then sprayed liberally onto the test surface (6 sprays/slide—approximately 6 ml of product) and the slides were allowed to stand for the desired contact time. The slides were removed from the petri dish using flamed forceps after exposure to the test product for the specified contact time and placed into test tubes containing 15.0 ml of the desired neutralizer for neutralization of the test product. Both 2× Letheen Broth (Tween 80 & Lecithin) and Dey/Engley neutralizing broths were separately utilized. Test bacteria was recovered by vortexing each test tube for 15 seconds. Serial dilutions were made using diluent. The pour plate technique using Tryptic Soy Agar was used to obtain plate counts. Parallel tests were run using a citrate-buffered (pH 5) solution of the dopant at a concentration equal to that in the doped test solutions or a 0.01% solution of Triton X-100 (isooctylphenoxy-polyethoxyethanol with 9-10 moles oxyethylene) in an identical manner to serve as controls. Blank parallel controls, using sterile, de-ionized water as the test product, were also evaluated.
# A 5-minute contact time using-a glass slide test surface was employed.
# (§2) The test products used are described below.
# [2] = test system: Klebsiella pneumoniae (ATCC 4352); test: Sanitizer Test on glass slides, 1-minute contact time; type: cell-based; conditions: K. pneumoniae, 100 ppm TAC
# Method: as §1, §2
# [3] = Long-term stability at 40° C., NaOCl by iodometric titration and pH; type: physicochemical; conditions: up to Day 58
# Method: Preparation of a stock 3.0% stabilized hypochlorite solution (0.75 to 1.0 mole ratio of sulfamate to NaOCl, pH 4.9 citric acid buffer): Anhydrous citric acid (210.0 g), sulfamic acid (88.0 g) and sodium hydroxide (93.0 g) were dissolved in deionized water (1897.54 g). The reaction mixture was allowed to cool to room temperature (approximately 1 hour).
# All stabilized hypochlorite-containing test formulas were prepared by further dilution of the 3.0% stabilized NaOCl stock solution. Where applicable, the appropriate amount of each dopant was added to a known volume of diluted stock solution. Solutions containing varying mole ratios of sulfamate to NaOCl (1.0 to 1.0 and 1.5 to 1.0) were prepared by adding solid sodium sulfamate, as required, to 1.0 liter portions of the diluted stock solution. For all “doped” formulas, the ratio of NaOCl to dopant was 1.0:0.20.
# Long-term stability samples were stored in a 40° C. incubator. After cooling to room temperature (23° C.) the concentration of NaOCl was determined via iodometric titration. The experimentally determined concentration of NaOCl is expressed in units of molarity (M). The recorded pH of each formula is shown in parentheses.
# Staphylococcus aureus = test: Sanitizer Test on glass slides, 1-minute contact time; type: cell-based; conditions: S. aureus, 500 and 200 ppm TAC
# Method: as §1
# However, a 1-minute contact time using a glass slide test surface was employed. Staphylococcus aureus was the test organism used. The test products that were used are described below.
# Results are reported as a bacterial reduction (log reduction) of the formulation
compound,measurement,setting,value
"O=C1NC2NC(=O)NC2N1 (stereo not shown) [Glycoluril, glycoluril]",antimicrobial enhancing effect of dopant added to base stabilized hypochlorite composition (in words),[1],modest antimicrobial benefit
NS(=O)(=O)c1ccc(C(=O)O)cc1 [4-carboxybenzenesulfonamide],antimicrobial enhancing effect of dopant added to base stabilized hypochlorite composition (in words),[1],significantly enhances the antimicrobial activity
"CC1(C)NC(=O)NC1=O [5,5-dimethylhydantoin]",antimicrobial enhancing effect of dopant added to base stabilized hypochlorite composition (in words),[1],significantly enhances the antimicrobial activity
same,antimicrobial effectiveness of stabilized hypochlorite solutions containing the dopant (in words),[2],have antimicrobial effectiveness against K. pneumoniae
same,effect of added dopant on long term stability of sulfamate-stabilized hypochlorite solutions (in words),[3],does not alter the long termn stability
same,antimicrobial effectiveness of stabilized hypochlorite solutions containing the dopant (in words),Staphylococcus aureus,lowest levels of enhanced antimicrobial efficacy
Cc1ccc(S(N)(=O)=O)cc1 [toluenesulfonamide],antimicrobial enhancing effect of dopant added to base stabilized hypochlorite composition (in words),[1],significantly enhances the antimicrobial activity; also recorded: antimicrobial enhancing ability
O=C1CCC(=O)N1 [succinimide],antimicrobial enhancing effect of dopant added to base stabilized hypochlorite composition (in words),[1],significantly enhances the antimicrobial activity
same,antimicrobial effectiveness of stabilized hypochlorite solutions containing the dopant (in words),[2],have antimicrobial effectiveness against K. pneumoniae
same,antimicrobial effectiveness of stabilized hypochlorite solutions containing the dopant (in words),Staphylococcus aureus,have antimicrobial effectiveness
O=c1[nH]c(=O)[nH]c(=O)[nH]1 [cyanuric acid],antimicrobial enhancing effect of dopant added to base stabilized hypochlorite composition (in words),[1],do not appear to have an antimicrobial enhancing effect
Nc1nc(N)nc(N)n1 [melamine],antimicrobial enhancing effect of dopant added to base stabilized hypochlorite composition (in words),[1],do not appear to have an antimicrobial enhancing effect
NS(=O)(=O)c1ccccc1 [benzenesulfonamide],antimicrobial enhancing effect of dopant added to base stabilized hypochlorite composition (in words),[1],significantly enhances the antimicrobial activity
same,antimicrobial effectiveness of stabilized hypochlorite solutions containing the dopant (in words),[2],have antimicrobial effectiveness against K. pneumoniae
same,effect of added dopant on long term stability of sulfamate-stabilized hypochlorite solutions (in words),[3],does not alter the long termn stability
same,antimicrobial effectiveness of stabilized hypochlorite solutions containing the dopant (in words),Staphylococcus aureus,most effective

# From US6471974B1, “N-chlorosulfamate compositions having enhanced antimicrobial efficacy” (S.C. Johnson & Son, Inc., priority 1999, dated 2002)
